Converted amounts (≈) assume the structure as drawn. Like-named read-outs stand apart in the source and are kept apart here.
Key:
M. abscessus ATCC 19977 = assay: MIC assay in 96-well plate format, wild-type strain; format: cell-based, Mycobacterium abscessus
Method: MIC determination was carried out in 96-well plate format as previously described.^[13-14] 96-well plates were initially set up with 100 μL of 7H9 per well. For each compound, a ten-point two-fold dilution series starting at twice the desired highest concentration was dispensed onto the 96-well plates using a Tecan D300e Digital Dispenser, with the DMSO concentration normalized to 2%. M. abscessus culture grown to mid-log phase (OD600=0.4-0.6) was diluted to OD600=0.1 (1×10^7 CFU/mL). […] Untreated control wells are included on each plate that contain bacteria suspension and 1% DMSO. Plates were sealed with parafilm, stored in boxes with wet paper towels and incubated at 37° C. with shaking (110 RPM). Plates were incubated for 3 days. To determine growth, OD600 was measured using a Tecan Infinite M200 plate reader on Day 0 and Day 3. Two biological replicates were performed. Clarithromycin was included in each experiment as a positive control.
For each well on the 96-well plate, bacterial growth was calculated by subtracting the Day 0 OD600 value from the Day 3 OD600 value. […] For compound-containing wells, percentage growth was calculated by dividing their growth values by the average drug-free bacterial growth for the compound series and multiplying by 100. For each compound series, we plotted percentage growth versus compound concentration.

[1] = Plasma protein binding assay (rapid equilibrium dialysis); format: in vitro ADME; conditions: 4 h, 10000 ng/mL
Method: DMSO stocks were spiked into plasma to a concentration of 10,000 ng/mL. 200 μL of spiked plasma was pipetted into the sample chamber of the rapid equilibrium dialysis (RED) cartridge. 350 μL of PBS was added to the adjacent cartridge. The plate containing the RED was sealed and incubated at 37° C. on the thermomixer at 300 RPM for 4 h. After incubation, 50 μL aliquots of plasma were removed and added to 50 μL of blank plasma in a deep well plate (1:1). Similarly, 50 μL aliquots of PBS were removed and added to 50 μL of blank plasma. This created an identical matrix between buffer and non-buffer samples. Samples were processed and quantified as specified in the LC-MS/MS analytical method.

[2] = Mycobacterium abscessus ATCC 19977, Table 11, read-out: MIC
[3] = Mycobacteroides abscessus, ATCC19977, Table 14, carbamate analogs, read-out: WT Mab MIC

Compound | MIC (M. abscessus ATCC 19977; [2]) | ƒu [1] | MIC (M. abscessus ATCC 19977; [3])
COc1ccc(S(=O)(=O)NC(=O)O[C@H]2[C@H](C)[C@H](O)[C@H](C)[C@@H](O)[C@@H](C)/C=C/C=C(\C)C(=O)NC3=C4NC5(CCN(CC(C)C)CC5)N=C4c4c(c(O)c(C)c5c4C(=O)[C@@](C)(O/C=C/[C@H](OC)[C@H]2C)O5)C3=O)cc1 [UMN122] | 0.14 µM (≈ 0.143 µg/mL) |  | 
CO[C@H]1/C=C/O[C@@]2(C)Oc3c(C)c(O)c4c(c3C2=O)C2=NC3(CCN(CC(C)C)CC3)NC2=C(NC(=O)/C(C)=C/C=C/[C@H](C)[C@H](O)[C@@H](C)[C@@H](O)[C@@H](C)[C@H](OC(=O)Nc2nccc3ccccc23)[C@@H]1C)C4=O [UMN124] | 0.027 µM (≈ 0.0263 µg/mL) |  | 
CO[C@H]1/C=C/O[C@@]2(C)Oc3c(C)c(O)c4c(c3C2=O)C2=NC3(CCN(CC(C)C)CC3)NC2=C(NC(=O)/C(C)=C/C=C/[C@H](C)[C@H](O)[C@@H](C)[C@@H](O)[C@@H](C)[C@H](OC(=O)Nc2ccc3cnccc3n2)[C@@H]1C)C4=O [UMN127] | 0.03 µM (≈ 0.0293 µg/mL) |  | 
CO[C@H]1/C=C/O[C@@]2(C)Oc3c(C)c(O)c4c(c3C2=O)C2=NC3(CCN(CC(C)C)CC3)NC2=C(NC(=O)/C(C)=C/C=C/[C@H](C)[C@H](O)[C@@H](C)[C@@H](O)[C@@H](C)[C@H](OC(=O)Nc2cnn3ccccc23)[C@@H]1C)C4=O [UMN129] | 0.044 µM (≈ 0.0424 µg/mL) |  | 
CO[C@H]1/C=C/O[C@@]2(C)Oc3c(C)c(O)c4c(c3C2=O)C2=NC3(CCN(CC(C)C)CC3)NC2=C(NC(=O)/C(C)=C/C=C/[C@H](C)[C@H](O)[C@@H](C)[C@@H](O)[C@@H](C)[C@H](OC(=O)Nc2cnc3cc(C)nn3c2)[C@@H]1C)C4=O [UMN130] | 0.049 µM (≈ 0.048 µg/mL) |  | 
CO[C@H]1/C=C/O[C@@]2(C)Oc3c(C)c(O)c4c(c3C2=O)C2=NC3(CCN(CC(C)C)CC3)NC2=C(NC(=O)/C(C)=C/C=C/[C@H](C)[C@H](O)[C@@H](C)[C@@H](O)[C@@H](C)[C@H](OC(=O)Nc2cnc3ccccc3n2)[C@@H]1C)C4=O [UMN134] | 0.03 µM (≈ 0.0293 µg/mL) |  | 
CO[C@H]1/C=C/O[C@@]2(C)Oc3c(C)c(O)c4c(c3C2=O)C2=NC3(CCN(CC(C)C)CC3)NC2=C(NC(=O)/C(C)=C/C=C/[C@H](C)[C@H](O)[C@@H](C)[C@@H](O)[C@@H](C)[C@H](OC(=O)Nc2cn3ccccc3n2)[C@@H]1C)C4=O [UMN136] | 0.061 µM (≈ 0.0588 µg/mL) |  | 
CO[C@H]1/C=C/O[C@@]2(C)Oc3c(C)c(O)c4c(c3C2=O)C2=NC3(CCN(CC(C)C)CC3)NC2=C(NC(=O)/C(C)=C/C=C/[C@H](C)[C@H](O)[C@@H](C)[C@@H](O)[C@@H](C)[C@H](OC(=O)Nc2cc3ccccn3n2)[C@@H]1C)C4=O [UMN142] | 0.033 µM (≈ 0.0318 µg/mL) |  | 
CO[C@H]1/C=C/O[C@@]2(C)Oc3c(C)c(O)c4c(c3C2=O)C2=NC3(CCN(CC(C)C)CC3)NC2=C(NC(=O)/C(C)=C/C=C/[C@H](C)[C@H](O)[C@@H](C)[C@@H](O)[C@@H](C)[C@H](OC(=O)Nc2cn3ccsc3n2)[C@@H]1C)C4=O [UMN145] | 0.065 µM (≈ 0.0631 µg/mL) |  | 
CO[C@H]1/C=C/O[C@@]2(C)Oc3c(C)c(O)c4c(c3C2=O)C2=NC3(CCN(CC(C)C)CC3)NC2=C(NC(=O)/C(C)=C/C=C/[C@H](C)[C@H](O)[C@@H](C)[C@@H](O)[C@@H](C)[C@H](OC(=O)NC2CCN(C)CC2)[C@@H]1C)C4=O [UMN146] |  | 10.8% | 0.09 µM (≈ 0.0851 µg/mL)
CO[C@H]1/C=C/O[C@@]2(C)Oc3c(C)c(O)c4c(c3C2=O)C2=NC3(CCN(CC(C)C)CC3)NC2=C(NC(=O)/C(C)=C/C=C/[C@H](C)[C@H](O)[C@@H](C)[C@@H](O)[C@@H](C)[C@H](OC(=O)NC2CCN(C(C)C)CC2)[C@@H]1C)C4=O [UMN147] |  | 7.5% | 0.098 µM (≈ 0.0954 µg/mL)
CCN1CCC(NC(=O)O[C@H]2[C@H](C)[C@H](O)[C@H](C)[C@@H](O)[C@@H](C)/C=C/C=C(\C)C(=O)NC3=C4NC5(CCN(CC(C)C)CC5)N=C4c4c(c(O)c(C)c5c4C(=O)[C@@](C)(O/C=C/[C@H](OC)[C@H]2C)O5)C3=O)CC1 [UMN149] |  | 10.4% | 0.078 µM (≈ 0.0748 µg/mL)
CO[C@H]1/C=C/O[C@@]2(C)Oc3c(C)c(O)c4c(c3C2=O)C2=NC3(CCN(CC(C)C)CC3)NC2=C(NC(=O)/C(C)=C/C=C/[C@H](C)[C@H](O)[C@@H](C)[C@@H](O)[C@@H](C)[C@H](OC(=O)NC2CCN(CC(C)C)CC2)[C@@H]1C)C4=O [UMN150] |  | 3.6% | 0.054 µM (≈ 0.0533 µg/mL)
